# From US20110039721A1, “METHOD FOR PREDICTION ABOUT CARCINOGENICITY OF SUBSTANCE IN RODENT” (Chemicals Evaluation and Research Institute, priority 2007, published 2011)
# What was measured:
# [1] = test system: mRNA expressed from the genes (A) to (D) in rat liver; experiment: Behavior of genes (mRNA expression level, oligo-DNA microarray) in rat liver after 28-day oral administration; type: in vivo
# In short: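 Male F344 SPF rats, 5 weeks old, four per group, received carcinogens, non-carcinogens or solvent vehicle by oral gavage once daily for 28 days. Liver total RNA was then extracted. Changes of ≥1.5-fold or ≤1/1.5 versus vehicle control, in a consistent direction across carcinogens, counted as significant.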
# [2] = test system: liver; details: in vivo; cited from earlier work
# [3] = test system: rodent; details: classification of the substance (C+/C−); cited from earlier work
# [4] = classification of the substance (M+/M−); cited from earlier work
# [5] = gene group (A), Unigene No. Rn.167075
# [6] = gene group (C), Unigene No. Rn.120914
structure (smiles),measurement,setting,value
"NC(=O)c1ccccc1C(N)=O [TS073, Phthalamide]","Behavior of gene caused by administration of chemical substance, Gene No. 4846","[1]; gene group (A), Unigene No. Rn.144554",−
same,"Behavior of gene caused by administration of chemical substance, Gene No. 2026",[1]; [5],−
same,"Behavior of gene caused by administration of chemical substance, Gene No. 4218",[1]; [5],−
same,"Behavior of gene caused by administration of chemical substance, Gene No. 6182","[1]; gene group (A), Unigene No. Rn.5834",−
same,"Behavior of gene caused by administration of chemical substance, Gene No. 5600","[1]; gene group (A), Unigene No. Rn.9836",−
same,"Behavior of gene caused by administration of chemical substance, Gene No. 1494","[1]; gene group (B), Unigene No. Rn.1430",−
same,"Behavior of gene caused by administration of chemical substance, Gene No. 2045","[1]; gene group (B), Unigene No. Rn.19329",+
same,"Behavior of gene caused by administration of chemical substance, Gene No. 2203","[1]; gene group (B), Unigene No. Rn.21240",−
same,"Behavior of gene caused by administration of chemical substance, Gene No. 533","[1]; gene group (C), Unigene No. Rn.106184",−
same,"Behavior of gene caused by administration of chemical substance, Gene No. 725","[1]; gene group (C), Unigene No. Rn.108075",−
same,"Behavior of gene caused by administration of chemical substance, Gene No. 1163","[1]; gene group (C), Unigene No. Rn.11766",−
same,"Behavior of gene caused by administration of chemical substance, Gene No. 4973","[1]; gene group (C), Unigene No. Rn.118529",−
same,"Behavior of gene caused by administration of chemical substance, Gene No. 4095","[1]; gene group (C), Unigene No. Rn.119024",−
same,"Behavior of gene caused by administration of chemical substance, Gene No. 1334",[1]; [6],−
same,"Behavior of gene caused by administration of chemical substance, Gene No. 6620",[1]; [6],−
same,"Behavior of gene caused by administration of chemical substance, Gene No. 6303","[1]; gene group (C), Unigene No. Rn.123063",−
same,"Behavior of gene caused by administration of chemical substance, Gene No. 5878","[1]; gene group (C), Unigene No. Rn.143213",−
same,"Behavior of gene caused by administration of chemical substance, Gene No. 1131","[1]; gene group (C), Unigene No. Rn.144946",−
same,"Behavior of gene caused by administration of chemical substance, Gene No. 1562","[1]; gene group (C), Unigene No. Rn.14744",−
same,"Behavior of gene caused by administration of chemical substance, Gene No. 1741","[1]; gene group (C), Unigene No. Rn.1647",−
same,"Behavior of gene caused by administration of chemical substance, Gene No. 893","[1]; gene group (C), Unigene No. Rn.164817",−
same,"Behavior of gene caused by administration of chemical substance, Gene No. 6026","[1]; gene group (C), Unigene No. Rn.167685",−
same,"Behavior of gene caused by administration of chemical substance, Gene No. 154","[1]; gene group (C), Unigene No. Rn.185941",−
same,"Behavior of gene caused by administration of chemical substance, Gene No. 1993","[1]; gene group (C), Unigene No. Rn.18728",−
same,"Behavior of gene caused by administration of chemical substance, Gene No. 813","[1]; gene group (C), Unigene No. Rn.201760",−
same,"Behavior of gene caused by administration of chemical substance, Gene No. 2494","[1]; gene group (C), Unigene No. Rn.23969",−
same,"Behavior of gene caused by administration of chemical substance, Gene No. 2546","[1]; gene group (C), Unigene No. Rn.24561",−
same,"Behavior of gene caused by administration of chemical substance, Gene No. 3776","[1]; gene group (C), Unigene No. Rn.43232",−
same,"Behavior of gene caused by administration of chemical substance, Gene No. 3929","[1]; gene group (C), Unigene No. Rn.4620",−
same,"Behavior of gene caused by administration of chemical substance, Gene No. 1119","[1]; gene group (C), Unigene No. Rn.9757",−
same,"Behavior of gene caused by administration of chemical substance, Gene No. 6742","[1]; gene group (C), Unigene No. Rn.9779",−
same,"Behavior of gene caused by administration of chemical substance, Gene No. 5634","[1]; gene group (C), Unigene No. Rn.9862",−
same,"Behavior of gene caused by administration of chemical substance, Gene No. 5726","[1]; gene group (D), Unigene No. Rn.9939",−
same,Liver carcinogenicity,[2],Cr−
same,Carcinogenicity,[3],C−
same,Mutagenicity by Ames test,[4],M−
